What was measured:
[1] = test system: advanced malignant melanoma or renal cell carcinoma; details: cited from earlier work
[2] = test system: advanced NSCLC; experiment: Clinical study in 2L NSCLC, q2w dosing: response per RECIST v1.1; type: in vivo, human
[3] = test system: mouse tumor models; experiment: Antitumor activity in mouse tumor models; type: in vivo
[4] = test system: PD-L1 and TGFβ dependent signaling; experiment: Inhibition of PD-L1 and TGFβ dependent signaling in vitro; type: cell-based
[5] = test system: EMT-6 xenografts; experiment: Mouse PK/Efficacy model from EMT-6 xenograft efficacy results; type: in vivo
Description: Experiments were also conducted to determine the efficacy of the anti-PD-L1/TGFβ Trap molecule in a tumor model. Efficacy results from EMT-6 xenografts were used to establish the PK/Efficacy model.
The model predictions are able to capture the tumor volume distributions. Conditional weighted residuals are normally distributed with a 0 mean and 1 variance without a trend. The PK/Efficacy model was then used to simulate tumor growth inhibition (TGI) using the human predicted concentration-time profiles at different doses.

[6] = test system: PD-L1 and TGFβ; experiment: Two-step ELISA, simultaneous binding
[7] = test system: melanoma; details: Phase I; cited from earlier work
[8] = test system: scarring after eye surgery; details: Phase 3; cited from earlier work
[9] = molecular target: TGFβ1 (Homo sapiens, UniProt P01137); details: binding of TGFβ1; cited from earlier work
[10] = PD-L1 high (≥80%) pts, 500 mg q2w
[11] = PD-L1 high (≥80%) pts, 1200 mg q2w
[12] = PK/Efficacy model parameter estimate, EMT-6 xenograft mice

Chain of TGFβ1 (P01137 279-390 limits assumed, species assumed): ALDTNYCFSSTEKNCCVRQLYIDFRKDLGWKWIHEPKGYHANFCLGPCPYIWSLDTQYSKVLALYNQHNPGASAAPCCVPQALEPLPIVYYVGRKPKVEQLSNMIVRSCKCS

Molecule: GC1008: a human antibody specific for all isoforms of TGFβ
- clinical efficacy ([1]; Phase I/II, patients): only limited clinical efficacy
- safety ([1]; in vivo): safe and well tolerated

Molecule: anti-PD-L1/TGFβ Trap: bi-functional fusion protein: anti-PD-L1 antibody heavy chains fused via glycine-serine linker to extracellular domain of human TGFβRII; SEQ ID NO: 3 and 1
- ORR, % ([2]; All patients, 500 mg q2w): 20.0%
- ORR, n (responders/patients) ([2]; All patients, 500 mg q2w): 8/40
- ORR, % ([2]; All patients, 1200 mg q2w): 27.5%
- ORR, n (responders/patients) ([2]; All patients, 1200 mg q2w): 11/40
- ORR, n (responders/patients) ([2]; All patients, Total): 19/80
- ORR, % ([2]; All patients, Total (both doses)): 23.8%
- ORR, % ([2]; PD-L1+ (≥1%) pts, 500 mg q2w): 19.4%
- ORR, n (responders/patients) ([2]; PD-L1+ (≥1%) pts, 500 mg q2w): 6/31
- ORR, % ([2]; PD-L1+ (≥1%) pts, 1200 mg q2w): 40.7%
- ORR, n (responders/patients) ([2]; PD-L1+ (≥1%) pts, 1200 mg q2w): 11/27
- ORR, % ([2]; PD-L1+ (≥1%) pts, Total): 29.3%
- ORR, n (responders/patients) ([2]; PD-L1+ (≥1%) pts, Total): 17/58
- ORR, % [2, 10]: 33.3%
- ORR, n (responders/patients) [2, 10]: 2/6
- ORR, % [2, 11]: 85.7%
- ORR, n (responders/patients) [2, 11]: 6/7
- ORR, % ([2]; PD-L1 high (≥80%) pts, Total): 62.0%
- ORR, n (responders/patients) ([2]; PD-L1 high (≥80%) pts, Total): 8/13
- partial responses (PR) ([2]; across both dose levels (500 mg and 1200 mg q2w), 80 patients): 18
- complete response (CR) ([2]; at 1200 mg q2w): 1
- antitumor activity and survival versus anti PD-L1 antibody avelumab or TGFβ Trap control alone ([3]; mouse tumor models, preclinical data): strongly enhances antitumor activity and prolongs survival
- antitumor activity ([3]; variety of mouse models): potent antitumor activity
- PD-L1 and TGFβ dependent signaling [4]: inhibited
- KC50 [5, 12]: 55324.6 ng/mL
- Kmax [5, 12]: 2
- KC50 (average plasma concentration for 50% of the maximal anti-tumor activity) ([5]; estimated, EMT-6 xenografts): 55.3 µg/mL
- simultaneous binding to PD-L1 and TGFβ ([6]; FIG. 2): simultaneously binds to both PD-L1 and TGFβ
- simultaneous binding to PD-L1 and TGFβ ([6]; FIG. 2, listed as protein of the present disclosure): simultaneously bound to both PD-L1 and TGFβ

Molecule: fresolimumab: monoclonal antibody targeting TGFβ1, 2 and 3
- tumor response [7]: initial evidence of tumor response

B1: Lerdelimumab: an antibody specific for TGFβ2 (antibody, chains of the INN, looked up, V domains shown)
VH: EVQLVESGGGVVQPGRSLRLSCAASGFTFSSYGMHWVRQAPGKGLEWVAVIWYDGSNKYYADSVKGRFTISRDNSKNTLYLQMDSLRAEDTAVYYCGRTLESSLWGQGTLVTVSS
VL: SSELTQDPAVSVALGQTVRITCQGDSLRSYYASWYQQKPGQAPVLVIYGKNNRPSGIPDRFSGSSSGNTASLTITGAQAEDEADYYCNSRDSSSTHRGVFGGGTKLTVL
- safety and efficacy at improving scarring [8]: safe but ineffective

B2: recombinant soluble TGFβRII: recombinant soluble extracellular domain of TGFβRII (protein, UniProt P37173 23-166, looked up)
extracellular domain: TIPPHVQKSVNNDMIVTDNNGAVKFPQLCKFCDVRFSTCDNQKSCMSNCSITSICEKPQEVCVAVWRKNDENITLETVCHDPKLPYHDFILEDAASPKCIMKEKKKPGETFFMCSCSSDECNDNIIFSEEYNTSNPDLLLVIFQ
modifications: extracellular domain
- Kd [9]: 0.2 nM
